Patent publication US11787788B2, “Benzimidazole derivatives, and pharmaceutical compositions and methods of use thereof” (CAPELLA THERAPEUTICS, INC., priority 2014, dated 2023)

Key:
Format in all cases: cell-based
[1] = tested on: HCC827 human NSCLC adenocarcinoma cells; assay: Cell proliferation assay, mutant ERBB1 (exon 19 deletion); details: for GI50: Homo sapiens, HCC827, 72 hrs treatment; for Selectivity Ratio (Wild-type ERBB1/Mutant ERBB1) A431/HCC827: ratio of GI50 A431/HCC827; for Selectivity Ratio (Wild-type ERBB1/Mutant ERBB1) HEKn/HCC827: ratio of GI50 HEKn/HCC827
Experimental: (§1) The biological activity of a test compound was determined using cell proliferation assays. The activity against wild-type ERBB1 was determined using A431 human epidermoid carcinoma cells (ATCC) and human epidermal keratinocytes, neonatal, or HEKn cells (ATCC).
(§2) A431 cells were grown in DMEM (Invitrogen) supplemented with 10% FBS (Lonza), 1% penicillin-streptomycin, and 2 mM glutamine (Invitrogen). HEKn cells were grown in EPILIFE® (Invitrogen) supplemented with HKGS (Invitrogen). HCC827 and H1975 were cultured in RPMI1640 supplemented with 10% FBS (Lonza), 1% penicillin-streptomycin, and 2 mM glutamine (Invitrogen). Cells were maintained and propagated at 37° C. and 5% CO2 in a humidified cell culture incubator. Aliquots of cells from early passages were preserved for liquid nitrogen storage. Frozen vials of cells were thawed at 37° C. water bath. Cells were spun to remove freezing medium. The newly revived frozen cells were adapted in culture for 10 days before used for compound testing. Cells used in the assay were less than 20 subculture passages or 3 months in culture.
(§3) The test compounds were dissolved in dimethylsulfoxide (DMSO) and stored at −20° C. before testing. […] The cells were placed in a culture incubator overnight. Next day, test compounds in DMSO were added to the cells and placed back in the culture incubator for 72 hrs. In the meantime, the cell numbers at time zero of the compound treatment (T0) was measured by ENERCOUNT® (Codex BioSolutions). At the end of the compound treatment, the cell numbers were again measured by EnerCount as T72 values. The untreated controls (Ctrl) were cell numbers recorded from the 0.1% DMSO treatment. The percent growth inhibition by the test compound was calculated by the formula: (1−(T72−T0)/(Ctrl−T0))×100.
(§4) The results are summarized in Tables 1 and 2, wherein A represents a value no greater than 500 nM, B represents a value greater than 500 nM but no greater than 1 μM, C represents a value greater than 1 μM but no greater than 5 μM, and D represents a value greater than 5 μM; and wherein A′ represents a ratio of greater than 10, B′ represents a ratio of no greater than 10 but no less than 5, C′ represents a ratio of no greater than 5 but no less than 2, and D′ represents a ratio of no greater than 2.

[2] = tested on: H1975 human NSCLC adenocarcinoma cells; assay: Cell proliferation assay, drug-resistant mutant ERBB1 (T790M/L858R); details: for GI50: Homo sapiens, NCI-H1975, 72 hrs treatment, class symbols; for Selectivity Ratio (Wild-type ERBB1/Mutant ERBB1) A431/H1975: ratio of GI50 A431/H1975; for Selectivity Ratio (Wild-type ERBB1/Mutant ERBB1) HEKn/H1975: ratio of GI50 HEKn/H1975
Experimental: as §1, §2, §3, §4

[3] = tested on: A431 human epidermoid carcinoma cells; assay: Cell proliferation assay, wild-type ERBB1; details: A-431, 72 hrs treatment, class symbols
Experimental: as §1, §2, §3, §4

[4] = tested on: human epidermal keratinocytes, neonatal, or HEKn cells; assay: Cell proliferation assay, wild-type ERBB1; details: Keratinocyte, 72 hrs treatment
Experimental: as §1, §2, §3, §4

| SMILES | GI50 ([1]; class symbols) [nM] | Selectivity Ratio (Wild-type ERBB1/Mutant ERBB1) A431/HCC827 [1] | Selectivity Ratio (Wild-type ERBB1/Mutant ERBB1) HEKn/HCC827 [1] | GI50 [2] [nM] | Selectivity Ratio (Wild-type ERBB1/Mutant ERBB1) A431/H1975 [2] | Selectivity Ratio (Wild-type ERBB1/Mutant ERBB1) HEKn/H1975 [2] | GI50 [3] [nM] | GI50 ([4]; class symbols) [nM] | GI50 ([1]; numeric values, unit inferred) [nM] | GI50 ([4]; numeric values, unit inferred) [nM] |
| --- | --- | --- | --- | --- | --- | --- | --- | --- | --- | --- |
| C=CC(=O)N1CCC(Oc2cccc3nc(NC(=O)c4ccnc(C)c4)n([C@@H]4CCCCN(C(=O)C=C)C4)c23)CC1 [Compound A3, (R)—N-(1-(1-acryloylazepan-3-yl)-7-((1-acryloylpiperidin-4-yl)oxy)-1H-benzo[d]imidazol-2-yl)-2-methylisonicotinamide] | < 500 | A′ (A′ represents a ratio of greater than 10) | A′ (A′ represents a ratio of greater than 10) | < 500 | B′ (B′ represents a ratio of no greater than 10 but no less than 5) | A′ (A′ represents a ratio of greater than 10) | > 5000 | 1000 to 5000 | – | – |
| C=CC(=O)Nc1cccc(Nc2nc(Nc3ccc(N4CCN(C(C)=O)CC4)cc3OC)ncc2C(F)(F)F)c1 [CO-1686, reference compound] | – | – | A′ (A′ represents a ratio of greater than 10) | – | – | A′ (A′ represents a ratio of greater than 10) | – | – | 32 | 2500 |
| C=CC(=O)N1CCCC[C@@H](n2c(NC(=O)c3ccnc(C)c3)nc3cccc(OC4CCN(C(C)=O)CC4)c32)C1 [Compound A2, (R)—N-(7-((1-acetylpiperidin-4-yl)oxy)-1-(1-acryloylazepan-3-yl)-1H-benzo[d]imidazol-2-yl)-2-methylisonicotinamide] | < 500 | A′ (A′ represents a ratio of greater than 10) | A′ (A′ represents a ratio of greater than 10) | < 500 | B′ (B′ represents a ratio of no greater than 10 but no less than 5) | A′ (A′ represents a ratio of greater than 10) | 500 to 1000 | > 5000 | – | – |
| C=CC(=O)N1CCCC[C@@H](n2c(NC(=O)c3ccnc(C)c3)nc3cccc(OC4CCN(CC)CC4)c32)C1 [Compound A1, (R)—N-(1-(1-Acryloylazepan-3-yl)-7-((1-ethylpiperidin-4-yl)oxy)-1H-benzo[d]imidazol-2-yl)-2-methylisonicotinamide] | < 500 | A′ (A′ represents a ratio of greater than 10) | A′ (A′ represents a ratio of greater than 10) | < 500 | A′ (A′ represents a ratio of greater than 10) | A′ (A′ represents a ratio of greater than 10) | < 500 | 1000 to 5000 | – | – |
| Cc1cc(C(=O)Nc2nc3cc(OC(F)(F)F)cc(Cl)c3n2[C@@H]2CCCCN(C(=O)/C=C/CN(C)C)C2)ccn1 [Compound A5, (R,E)-N-(7-Chloro-1-(1-(4-(dimethylamino)but-2-enoyl)azepan-3-yl)-5-(trifluoromethoxy)-1H-benzo[d]imidazol-2-yl)-2-methylisonicotinamide] | < 500 | A′ (A′ represents a ratio of greater than 10) | A′ (A′ represents a ratio of greater than 10) | < 500 | C′ (C′ represents a ratio of no greater than 5 but no less than 2) | A′ (A′ represents a ratio of greater than 10) | 1000 to 5000 | 1000 to 5000 | – | – |
| C=CC(=O)N1CCCC[C@@H](n2c(NC(=O)c3ccnc(C)c3)nc3cc(OC(F)(F)F)cc(Cl)c32)C1 [Compound A4, (R)—N-(1-(1-Acryloylazepan-3-yl)-7-chloro-5-(trifluoromethoxy)-1H-benzo[d]imidazol-2-yl)-2-methylisonicotinamide] | < 500 | A′ (A′ represents a ratio of greater than 10) | A′ (A′ represents a ratio of greater than 10) | < 500 | C′ (C′ represents a ratio of no greater than 5 but no less than 2) | C′ (C′ represents a ratio of no greater than 5 but no less than 2) | 1000 to 5000 | 1000 to 5000 | – | – |
